Where two headings read alike, the source gives them in different places.
Key:
[1] = target: human cannabinoid CB1 receptor (Homo sapiens, UniProt P21554); test: biochemical; format: binding; parameters: expressed in transfected cells; host or cells: Chinese hamster ovary (CHO) cells, membrane preparation; details: [3H]CP-55,940 radioligand, CHO cell membranes stably transfected with human CB1
Method: After incubation of a freshly prepared cell membrane preparation with the [^3H]-ligand, with or without addition of compounds of the invention, separation of bound and free ligand was performed by filtration over glassfiber filters. Radioactivity on the filter was measured by liquid scintillation counting.

Chain of human cannabinoid CB1 receptor (P21554 whole entry): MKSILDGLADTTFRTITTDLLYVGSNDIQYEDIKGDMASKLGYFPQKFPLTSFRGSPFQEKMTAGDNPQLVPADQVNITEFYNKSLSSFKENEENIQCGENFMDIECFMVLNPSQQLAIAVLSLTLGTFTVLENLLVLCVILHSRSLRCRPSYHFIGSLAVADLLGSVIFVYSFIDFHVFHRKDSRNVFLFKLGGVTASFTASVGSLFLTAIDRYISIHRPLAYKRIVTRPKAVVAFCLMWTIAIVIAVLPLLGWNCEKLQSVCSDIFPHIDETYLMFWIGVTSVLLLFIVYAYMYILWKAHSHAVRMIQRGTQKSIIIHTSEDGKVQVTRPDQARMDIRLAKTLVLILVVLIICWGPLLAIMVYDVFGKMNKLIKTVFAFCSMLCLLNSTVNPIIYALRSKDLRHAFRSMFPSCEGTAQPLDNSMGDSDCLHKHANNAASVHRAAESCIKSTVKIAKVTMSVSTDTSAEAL

Ki ([1]; read-out: hCB1 pKi (converted)) [nM]	SMILES	melting point [°C]	Ki ([1]; hCB1 pKi) [nM]
	CCCCCNC(=O)c1nc(-c2ccc(Cl)cc2F)n(-c2ccc(Cl)cc2)c1C [Example 67, 1-(4-Chlorophenyl)-2-(2-fluoro-4-chlorophenyl)-5-methyl-N-(n-pentyl)-1H-imidazole-4-carboxamide]	115	398
	Cc1c(C(=O)NC2CCCCC2)nc(-c2ccc(Cl)cc2F)n1-c1ccc(Cl)cc1 [Example 68, 1-(4-Chlorophenyl)-N-(cyclohexyl)-2-(2-fluoro-4-chlorophenyl)-5-methyl-1H-imidazole-4-carboxamide]	188	200
	Cc1ccc(-c2nc(C(=O)NC3CCCCC3)c(C)n2-c2ccc(Cl)cc2)n1C [Example 69, 1-(4-Chlorophenyl)-N-(cyclohexyl)-2-(1,5-dimethyl-1H-pyrrol-2-yl)-5-methyl-1H-imidazole-4-carboxamide]	188 to 189	39.8
	Cc1ccc(-c2nc(C(=O)NN3CCCCC3)c(C)n2-c2ccc(Cl)cc2)n1C [Example 70, 1-(4-Chlorophenyl)-2-(1,5-dimethyl-1H-pyrrol-2-yl)-5-methyl-N-(piperidin-1-yl)-1H-imidazole-4-carboxamide]	208 to 210	5.01
	Cc1c(C(=O)NN2CCCCC2)nc(-c2ccccc2Cl)n1-c1cccc(F)c1 [Example 71, 2-(2-Chlorophenyl)-1-(3-fluorophenyl)-5-methyl-N-(piperidin-1-yl)-1H-imidazole-4-carboxamide]	236 to 238	39.8
	Cc1c(C(=O)NC2CCCCC2)nc(-c2ccccc2Cl)n1-c1cccc(F)c1 [Example 73, 2-(2-Chlorophenyl)-N-cyclohexyl-1-(3-fluorophenyl)-5-methyl-1H-imidazole-4-carboxamide]	180 to 182.5	12.6
398	Cc1c(C(=O)NCCc2ccc(F)cc2)nc(-c2ccccc2Cl)n1-c1cccc(F)c1 [Example 74, 2-(2-Chlorophenyl)-1-(3-fluorophenyl)-N-(2-(4-fluorophenyl)ethyl)-5-methyl-1H-imidazole-4-carboxamide]	123.5 to 126	
	CCc1c(C(=O)NN2CCCCC2)nc(-c2ccc(Cl)cc2Cl)n1-c1ccc(Cl)cn1 [Example 75, 1-(5-Chloropyridin-2-yl)-2-(2,4-dichlorophenyl)-5-ethyl-N-(piperidin-1-yl)-1H-imidazole-4-carboxamide]	146	100
251	CCc1c(C(=O)NN2CCOCC2)nc(-c2ccc(Cl)cc2Cl)n1-c1ccc(Cl)cn1 [Example 76, 1-(5-Chloropyridin-2-yl)-2-(2,4-dichlorophenyl)-5-ethyl-N-(4-morpholinyl)-1H-imidazole-4-carboxamide]	223	
	CCc1c(C(=O)NN2CCCCCC2)nc(-c2ccc(Cl)cc2Cl)n1-c1ccc(Cl)cn1 [Example 77, N-(1-Azepanyl)-1-(5-Chloropyridin-2-yl)-2-(2,4-dichlorophenyl)-5-ethyl-1H-imidazole-4-carboxamide]	177	31.6
	CCc1c(C(=O)NC2CCCCC2)nc(-c2ccc(Cl)cc2Cl)n1-c1ccc(Cl)cn1 [Example 78, 1-(5-Chloropyridin-2-yl)-N-cyclohexyl-2-(2,4-dichlorophenyl)-5-ethyl-1H-imidazole-4-carboxamide]	149	3.16
	Cc1c(C(=O)Nc2ccccc2)nc(-c2ccc(Cl)cc2Cl)n1-c1ccc(Cl)cc1 [Example 82, 1-(4-Chlorophenyl)-2-(2,4-dichlorophenyl)-5-methyl-N-phenyl-1H-imidazole-4-carboxamide]	91 to 95	2.51
	Cc1c(C(=O)NOC2CCCCO2)nc(-c2ccc(Cl)cc2Cl)n1-c1ccc(Cl)cc1 (stereo not shown) [Example 83, 1-(4-Chlorophenyl)-2-(2,4-dichlorophenyl)-5-methyl-N-(tetrahydro-2H-pyran-2-yloxy)-1H-imidazole-4-carboxamide]	128 to 133	3.98
	Cc1c(C(=O)NCCF)nc(-c2ccc(Cl)cc2Cl)n1-c1ccc(Cl)cc1 [Example 85, 1-(4-Chlorophenyl)-2-(2,4-dichlorophenyl)-N-(2-fluoroethyl)-5-methyl-1H-imidazole-4-carboxamide]	128 to 133	25.1
	Cc1c(C(=O)NCc2ccc(F)cc2)nc(-c2ccc(Cl)cc2Cl)n1-c1ccc(Cl)cc1 [Example 90, 1-(4-Chlorophenyl)-2-(2,4-dichlorophenyl)-N-(4-fluorobenzyl)-5-methyl-1H-imidazole-4-carboxamide]	165 to 166	10
	Cc1c(C(=O)NN2CCCCC2)nc(-c2cc(Cl)ccc2Cl)n1-c1ccccc1 [Example 95, 2-(2,5-Dichlorophenyl)-5-methyl-1-phenyl-N-(piperidin-1-yl)-1H-imidazole-4-carboxamide]	227	63.1
	Cc1c(C(=O)NC2CCCCC2)nc(-c2cc(Cl)ccc2Cl)n1-c1ccccc1 [Example 96, N-Cyclohexyl-2-(2,5-dichlorophenyl)-5-methyl-1-phenyl-1H-imidazole-4-carboxamide]	236	6.31
	Cc1c(C(=O)Nc2cccc(C(F)(F)F)c2)nc(-c2ccc(Cl)cc2Cl)n1-c1ccc(Cl)cc1 [Example 104, 1-(4-Chlorophenyl)-2-(2,4-dichlorophenyl)-5-methyl-N-(3-(trifluoromethyl)phenyl)-1H-imidazole-4-carboxamide]	177	6.31
	Cc1c(C(=O)NCc2cccc(C(F)(F)F)c2)nc(-c2ccc(Cl)cc2Cl)n1-c1ccc(Cl)cc1 [Example 105, 1-(4-Chlorophenyl)-2-(2,4-dichlorophenyl)-5-methyl-N-(3-(trifluoromethyl)benzyl)-1H-imidazole-4-carboxamide]	138 to 140	31.6
	O=C(NC1CCCCC1)c1nc(-c2ccc(Cl)cc2Cl)n(-c2ccc(Cl)cc2)c1I [Example 112, 1-(4-Chlorophenyl)-N-cyclohexyl-2-(2,4-dichlorophenyl)-5-iodo-1H-imidazole-4-carboxamide]	226 to 230	6.31
	N#Cc1c(C(=O)NC2CCCCC2)nc(-c2ccc(Cl)cc2Cl)n1-c1ccc(Cl)cc1 [Example 113, 1-(4-Chlorophenyl)-5-cyano-N-cyclohexyl-2-(2,4-dichlorophenyl)-1H-imidazole-4-carboxamide]	157 to 158	15.8
	O=C(NN1CCCCC1)c1nc(-c2ccc(Cl)cc2Cl)n(-c2ccc(Cl)cc2)c1CF [Example 114, 1-(4-chlorophenyl)-2-(2,4-dichlorophenyl)-5-fluoromethyl-N-(piperidin-1-yl)-1H-imidazole-4-carboxamide]	162 to 163	63.1
	O=C(NN1CCCCC1)c1nc(-c2ccc(Cl)cc2Cl)n(-c2ccc(Cl)cc2)c1CO [Example 115, 1-(4-chlorophenyl)-2-(2,4-dichlorophenyl)-5-hydroxymethyl-N-(piperidin-1-yl)-1H-imidazole-4-carboxamide]	212 to 214	31.6

Reference: patent US7109216B2 (priority 2001, dated 2006)
